Key:
Panc-1 cells = assay: Tumor treatment in nude mice, Panc-1 model (Example 60); assay type: in vivo; details: for Size of tumor (mm^3) Day 10 / inhibitory rate on tumor Day 10 / Size of tumor (mm^3) Day 24 / inhibitory rate on tumor Day 24: Panc-1 in nude mice, IV once weekly for four weeks, E1-E4 15 mg/kg, mitomycin 2 mg/kg
Method: 1) Panc-1 cells were purchased from American type culture collection (ATCC) and identified according the specification provided by ATCC. Cells were cultivated in DMEM culture solution containing 10% fetal bovine serum at 37° C. and 5% CO2. The cells were passaged for every three days and cells within the 15th passage were used.
2) Production of tumor. 5×10^6Panc-1 cells were subcutaneously injected to the back of the nude mice. Mice were randomly grouped after the tumor reached at least 100 mm^3. Then treatment began and the day on which the treatment began was day 1.
(§1) […]. The control group was administered by physiological saline. Drugs were administered once weekly for four weeks.

HT1080 cells = assay: Tumor treatment in nude mice, HT1080 model (Example 61); assay type: in vivo; details: for Size of tumor (mm^3) Day 13 / inhibitory rate on tumor Day 13 / Size of tumor (mm^3) Day 26 / inhibitory rate on tumor (Day 26): HT1080 in nude mice, IV once weekly for four weeks, E1-E4 15 mg/kg, mitomycin 2 mg/kg
Method: 1) HT1080 cells were purchased from American type culture collection (ATCC) and identified according the specification provided by ATCC. Cells were cultivated in DMEM culture solution containing 10% fetal bovine serum at 37° C. and 5% CO2. The cells were passaged for every three days and cells within the 15th passage were used.
2) Production of tumor. 5×10^6 HT1080 cells were subcutaneously injected to the back of the nude mice. Mice were randomly grouped after the tumor reached at least 100 mm^3. Then treatment began and the day on which the treatment began was day 1.
as §1

[1] = system: scar and choroidal neovascularization (CNV); assay: Inhibition of scar and choroidal neovascularization (CNV) by eye drops after laser photocoagulation; assay type: in vivo, C57 mice; details: for Maximal scar radius observed by pathological staining (pixel): 150 mW laser photocoagulation, eye drops daily, two weeks, C57 mice
Method: Animal: C57 mice of 16 weeks old, all female and 8 animals in each group.
(§2) Production and treatment of scar. […] Two weeks later, eye tissues were taken from 4 animals of each group for immunohistochemical (HE) staining. For another 4 animals, they were subjected to fixed irradiation through photocoagulation by 50 mW laser and then to treatment. 48 hours later, their eye tissues were taken, homogenated, filtered to isolate individual cells in the scar and choroidal neovascularization (CNV) tissues. The cells were washed by buffer twice and stained by biotin-conjugated anti-F4/80 (biotin-labeled precursor cell antigen from macrophage) and FITC-conjugated anti-CD45 (isothiocyanate fluorescein labeled leucocyte common antigen) at ambient temperature for 1 hour. Then the cells were washed by PBS containing 1% fetal bovine serum twice and then analyzed for the ratio of the macrophage precursor antigen positive cells in the leucocyte common antigen (CD45) positive cells by flow cytometry.

macrophage = assay: Macrophage precursor antigen (F4/80) positive cells in CD45 positive cells of scar/CNV tissue, flow cytometry; assay type: in vivo, C57 mice; details: 50 mW laser, 48 hours after treatment
Method: as §2

[2] = system: Human breast cancer MDA-MB231 cells; assay type: in vivo, nude mice; details: for Effect on tumor growth, in words: compared to control, camptothecin, capecitabine and daunorubicin groups
Method: 1) Human breast cancer MDA-MB231 cells were purchased from American type culture collection (ATCC) and identified according the specification provided by ATCC. Cells were cultivated in […] (DMEM culture medium) containing 10% fetal bovine serum at 37° C. and 5% CO2. The cells were passaged for every three days and cells within the 15th passage were used.
2) Production of tumor. 5×10^6 MDA-MB231 cells were subcutaneously injected to the back of the nude mice. Mice were randomly grouped after the tumor reached at least 100 mm^3. Then treatment began and the day on which the treatment began was day 1.
3) Course of treatment. […] The drugs were administered once weekly for four weeks.
When R1 is 2-(2-Methoxyethoxy)Acetyl, and R3 is Ala, activation study and efficacy study were carried out by using compounds having different cleavable linker. The study methods are identical to those in Examples 10, 11 and 12. The in vitro activation efficiency was tested by asparagine endopeptidase and the tumor inhibition rate was tested by using human breast cancer MDA-MB231 model. […]

[3] = system: Human breast cancer MDA-MB435; assay: Multiple tumor models in nude mice: MDA-MB435; assay type: in vivo
Method: (§3) 1) Corresponding tumor cells were purchased from American type culture collection (ATCC) and identified according the specification provided by ATCC. Cells were cultivated in DMEM culture solution containing 10% fetal bovine serum at 37° C. and 5% CO2. The cells were passaged for every three days and cells within the 15th passage were used.
(§4) 2) Production of tumor. 5×10^6 corresponding cells were subcutaneously injected to the back of the nude mice. Mice were randomly grouped after the tumor reached at least 100 mm^3. Then treatment began and the day on which the treatment began was day 1.
(§5) 3) Course of treatment. […] The control group was administered by physiological saline. Animals were administered once weekly for three weeks.
(§6) 3) Course of treatment. According to the clinical application of A1, A1 was administered in a dose of ⅙ MTD, i.v., 17.6 μmol/kg. The control group was administered by physiological saline. Animals were administered once weekly for three weeks.
(§7) 3) Course of treatment. According to the clinical application of B1, B1 was administered in a dose of ⅙ MTD, i.v., 17.6 μmol/kg. The control group was administered by physiological saline. Animals were administered once weekly for three weeks.
as §5, §5

[4] = system: Human ovarian cancer SK-OV-3; assay: Multiple tumor models in nude mice: SK-OV-3; assay type: in vivo
Method: as §3, §4, §5, §6, §7, §5, §5

Human colon cancer HT-29 = assay: Multiple tumor models in nude mice: HT-29; assay type: in vivo
Method: as §3, §4, §5, §6, §7, §5, §5

[5] = system: Human chronic leukemia K562; assay: Multiple tumor models in nude mice: K562; assay type: in vivo
Method: as §3, §4, §5, §6, §7, §5, §5

[6] = Multiple tumor models in nude mice: HT1080; assay type: in vivo; details: Human colon caner HT1080
Method: as §3, §4, §5, §6, §7, §5, §5

[7] = system: Human pancreatic cancer Panc-1; assay: Multiple tumor models in nude mice: Panc-1; assay type: in vivo
Method: as §3, §4, §5, §6, §7, §5, §5

Human liver cancer Hepg2 = assay: Multiple tumor models in nude mice: Hepg2; assay type: in vivo
Method: as §3, §4, §5, §6, §7, §5, §5

[8] = system: Human renal cancer OS-RC-2; assay: Multiple tumor models in nude mice: OS-RC-2; assay type: in vivo
Method: as §3, §4, §5, §6, §7, §5, §5

[9] = MDA-MB231, nude mice, IV 13.2 μmol/kg once weekly for four weeks, Day 10
[10] = MDA-MB231, nude mice, IV 13.2 μmol/kg once weekly for four weeks, Day 24
[11] = Table 29, i.v. 17.6 μmol/kg once weekly for three weeks
[12] = S1′ i.v. 17.6 μmol/kg once weekly for three weeks

Compound: CO[C@@]12[C@H](COC(N)=O)C3=C(C(=O)C(C)=C(N)C3=O)N1C[C@@H]1N[C@@H]12 [mitomycin, reference compound]
- Size of tumor (mm^3) Day 10 (Panc-1 cells): 118.85 ± 36.47 mm^3
- inhibitory rate on tumor Day 10 (Panc-1 cells): 7.5%
- Size of tumor (mm^3) Day 24 (Panc-1 cells): 249.54 ± 95.46 mm^3
- inhibitory rate on tumor Day 24 (Panc-1 cells): 27.9%
- Size of tumor (mm^3) Day 13 (HT1080 cells): 876.48 ± 78.29 mm^3
- inhibitory rate on tumor Day 13 (HT1080 cells): 3.7%
- Size of tumor (mm^3) Day 26 (HT1080 cells): 1410.28 ± 375.46 mm^3
- inhibitory rate on tumor (Day 26) (HT1080 cells): 10.4%
- Maximal scar radius observed by pathological staining (pixel) [1]: 953 ± 249 pixel
- F4/80+ cells among CD45+ cells (%) (macrophage): 14.6 ± 2.4%

Compound: 4-N—(N—(N—(N-(6-maleimido caproyl)-L-alanyl)-L-alanyl)-L-asparaginyl)-amino benzyl alcohol-MMAE-carbamate [Compound S6]
- Inhibitory rate on tumor (%) Day 10 [2, 9]: 23%
- Size of tumor (mm^3) Day 10 [2, 9]: 235.5 ± 56.3 mm^3
- Inhibitory rate on tumor (%) Day 24 [2, 10]: 45.3%
- Effect on tumor growth, in words [2]: less efficacy
- tumor inhibition rate (%) ([2]; human breast cancer MDA-MB231 model, different cleavable linkers): 45.4%

Compound: COCCOCC(=O)NCCCC[C@H](NC(=O)COCCOC)C(=O)N[C@H](C)C(=O)N[C@H](C)C(=O)N[C@H](CC(N)=O)C(=O)Nc1ccc(COC(=O)OC(C(=O)OC2C[C@@]3(O)[C@@H](OC(=O)c4ccccc4)[C@H]4[C@](C)(C(=O)[C@H](OC(C)=O)C(=C2C)C3(C)C)[C@@H](O)CC2OC[C@]24OC(C)=O)[C@@H](NC(=O)c2ccccc2)c2ccccc2)cc1 (some centres unmarked) [Compound A1]
- inhibitory rate on tumor (Day 26) [3, 11]: 91.2%
- inhibitory rate on tumor (Day 26) [4, 11]: 84.4%
- inhibitory rate on tumor (Day 26) (Human colon cancer HT-29; [11]): 87.5%
- inhibitory rate on tumor (Day 26) [5, 11]: 76.9%
- inhibitory rate on tumor (Day 26) [6, 11]: 95.6%
- inhibitory rate on tumor (Day 26) [7, 11]: 89.2%
- inhibitory rate on tumor (Day 26) (Human liver cancer Hepg2; [11]): 85.4%
- inhibitory rate on tumor (Day 26) [8, 11]: 86.6%

Compound: COCCOCC(=O)N[C@H](C)C(=O)N[C@H](C)C(=O)N[C@H](CC(N)=O)C(=O)Nc1ccc(COC(=O)OC(C(=O)OC2C[C@@]3(O)C(OC(=O)c4ccccc4)[C@@H]4C5(OC(C)=O)COC5C[C@H](O)[C@@]4(C)C(=O)[C@H](OC(C)=O)C(=C2C)C3(C)C)[C@@H](NC(=O)c2ccccc2)c2ccccc2)cc1 (stereo in doubt) [S1′, 2-(2-methoxyethoxy) acetylamino-L-Ala-L-Ala-L-Asn-p-amino-benzyl-paclitaxel]
- inhibitory rate on tumor (Day 26) [3, 12]: 90.7%
- inhibitory rate on tumor (Day 26) [4, 12]: 85.6%
- inhibitory rate on tumor (Day 26) (Human colon cancer HT-29; [12]): 89.7%
- inhibitory rate on tumor (Day 26) [5, 12]: 77.9%
- inhibitory rate on tumor (Day 26) [6, 12]: 94.3%
- inhibitory rate on tumor (Day 26) [7, 12]: 88.59%
- inhibitory rate on tumor (Day 26) (Human liver cancer Hepg2; [12]): 84.3%
- inhibitory rate on tumor (Day 26) [8, 12]: 85.7%

Compound: COc1cccc2c1C(=O)c1c(O)c3c(c(O)c1C2=O)C[C@@](O)(C(C)=O)C[C@@H]3O[C@H]1C[C@H](NC(=O)OCc2ccc(NC(=O)[C@H](CC(N)=O)NC(=O)[C@H](C)NC(=O)[C@H](C)NC(=O)CCCCCN3C(=O)C=CC3=O)cc2)[C@H](O)[C@H](C)O1 [Compound S5, 4-N—(N—(N—(N-(6-maleimidocaproyl)-L-alanyl)-L-alanyl)-L-asparaginyl)-amino benzyl alcohol-daunorubicin-carbamate]
- Size of tumor (mm^3) Day 10 [2, 9]: 63.67 ± 46.64 mm^3
- Size of tumor (mm^3) Day 24 [2, 10]: 46.45 ± 19.43 mm^3
- Effect on tumor growth, in words [2]: strong inhibitory effect on tumor growth

Compound: CCCCCOC(=O)Nc1nc(=O)n([C@@H]2O[C@H](C)[C@@H](OC(=O)OCc3ccc(NC(=O)[C@H](CC(N)=O)NC(=O)[C@H](C)NC(=O)[C@H](C)NC(=O)CCCCCCC(=O)NO)cc3)[C@H]2O)cc1F [Compound S3, 4-N—(N—(N—(N-(8-(N-hydroxylamino)-1,8-octandioic acid-1-monoacyl)-L-alanyl)-L-alanyl)-L-asparaginyl)-amino benzyl alcohol-capecitabine-carbonic acid diester]
- Size of tumor (mm^3) Day 10 [2, 9]: 85.67 ± 36.42 mm^3
- Size of tumor (mm^3) Day 24 [2, 10]: 0 mm^3
- Effect on tumor growth, in words [2]: strong inhibitory effect on tumor growth

Compound: COCCOCCOCCOCCOCCOCC(=O)N[C@H](C)C(=O)N[C@H](C)C(=O)N[C@H](CC(N)=O)C(=O)Nc1ccc(COC(=O)N2[C@H]3[C@@H]2CN2C4=C(C(=O)C(N)=C(C)C4=O)[C@H](COC(N)=O)[C@]32OC)cc1 [Compound E2]
- Size of tumor (mm^3) Day 10 (Panc-1 cells): 60.17 ± 30.26 mm^3
- inhibitory rate on tumor Day 10 (Panc-1 cells): 36.4%
- Size of tumor (mm^3) Day 24 (Panc-1 cells): 42.39 ± 62.24 mm^3
- inhibitory rate on tumor Day 24 (Panc-1 cells): 83.01%
- Inhibition on tumor growth, in words (Panc-1 cells; Panc-1, compared with mitomycin group and control group): greatly improved
- Size of tumor (mm^3) Day 13 (HT1080 cells): 378.11 ± 68.46 mm^3
- inhibitory rate on tumor Day 13 (HT1080 cells): 58.5%
- Size of tumor (mm^3) Day 26 (HT1080 cells): 137.60 ± 156.42 mm^3
- inhibitory rate on tumor (Day 26) (HT1080 cells): 91.3%
- Inhibition on tumor growth, in words (HT1080 cells; HT1080, compared with mitomycin group and control group): greatly improved
- Maximal scar radius observed by pathological staining (pixel) [1]: 348 ± 146 pixel
- Treatment effect on scar radius and inhibition of macrophage, in words ([1]; eye drops, compared to the control group and the mitomycin group): greatly improved treatment effect on scar radius and inhibition of macrophage
- F4/80+ cells among CD45+ cells (%) (macrophage): 7.7 ± 1.7%

— patent US10682371B2, “Small molecule conjugates specifically activated in tumor microenvironment for targeting and use thereof” (priority 2014, dated 2020)
